In patent publication US20250275959A1, “COMPOUNDS AND METHODS OF THEIR USE” (LEXICON PHARMACEUTICALS, INC., priority 2024, published 2025):
pIC50: −log10 of the molar value.

Molecular target: hACSL5 (Homo sapiens (Human), UniProt Q9ULC5)
Test: Human ACSL5 coupled enzyme Amplex Red assay
Type: biochemical
Settings: read-out: hACSL5 IC50
Experimental: Human ACSL5 (33-683) was cloned with a C-terminal 6 His tag and expressed in insect cells (sf9) as per standard insect cell expression protocols. Human ACSL5 was enriched by affinity nickel affinity chromatography followed by Superdex S200 gel filtration column equilibrated in 20 mM HEPES pH 7.8, 500 mM NaCl, 1 mM TCEP, 5% glycerol, 0.1% Triton X^100.
Inhibition of ACSL5 enzyme activity was monitored with a coupled enzyme Amplex Red assay.
The assay is carried out in 384-well microtiterplates. In a total volume of […], compounds are preincubated with 20 nM ACSL5, in a buffer containing 150 mM MOPS-NaOH, 12 mM MgCl2, 0.03% (v/v) Triton X-100, 2.79 U mL-1 Peroxidase and 24 U mL-1 Acyl-CoA Oxidase (pH 7.6). The reaction is started by the addition of substrate and co factors (25 μM oleate, 30 μM CoA, 1 mM ATP and 50 μM Amplex Red) and the fluorescence detected after 10 minutes at 25° C. with a fluorescence reader (BMG-Fluostar; BMG-Technologies) using an excitation wavelength of 535 nm and an emission wavelength of 590 nm.
Concentration-response titration points for each compound tested were filled to the Hill equation yielding concentrations of half maximal inhibition […] and maximal inhibition values.

Sequence of hACSL5 (Q9ULC5 33-683): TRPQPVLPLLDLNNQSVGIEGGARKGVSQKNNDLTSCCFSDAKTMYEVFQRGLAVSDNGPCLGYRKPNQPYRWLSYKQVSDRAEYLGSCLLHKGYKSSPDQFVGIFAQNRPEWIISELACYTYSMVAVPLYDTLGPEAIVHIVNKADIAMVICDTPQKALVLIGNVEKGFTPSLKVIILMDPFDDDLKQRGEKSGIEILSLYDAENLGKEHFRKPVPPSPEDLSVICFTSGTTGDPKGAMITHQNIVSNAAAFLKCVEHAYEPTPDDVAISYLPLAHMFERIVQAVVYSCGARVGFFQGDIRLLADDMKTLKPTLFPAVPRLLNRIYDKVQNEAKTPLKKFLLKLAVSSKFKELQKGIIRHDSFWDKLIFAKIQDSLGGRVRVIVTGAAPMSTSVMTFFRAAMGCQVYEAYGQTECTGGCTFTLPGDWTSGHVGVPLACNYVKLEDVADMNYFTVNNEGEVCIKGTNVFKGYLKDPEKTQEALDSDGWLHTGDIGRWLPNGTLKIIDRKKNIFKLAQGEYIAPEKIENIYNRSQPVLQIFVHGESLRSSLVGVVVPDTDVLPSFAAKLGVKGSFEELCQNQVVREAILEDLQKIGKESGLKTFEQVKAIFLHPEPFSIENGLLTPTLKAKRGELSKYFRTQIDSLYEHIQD

pIC50	SMILES
6.30 to 7.00	CC[C@@H](Oc1ccc(C(=O)NS(=O)(=O)N2CCC(OC3CN(C)C3)CC2)c(F)c1F)c1ccc(OCC2CC2)cn1 [(R)-4-(1-(5-(cyclopropylmethoxy)pyridin-2-yl)propoxy)-2,3-difluoro-N-((4-((1-methylazetidin-3-yl)oxy)piperidin-1-yl)sulfonyl)benzamide]
6.30 to 7.00	CC[C@@H](Oc1ccc(C(=O)NS(=O)(=O)N2CC3=C(CN(C)C3)C2)c(F)c1F)c1ccc(OCC2CC2)cn1 [(R)-4-(1-(5-(cyclopropylmethoxy)pyridin-2-yl)propoxy)-2,3-difluoro-N-((5-methyl-3,4,5,6-tetrahydropyrrolo[3,4-c]pyrrol-2(1H)-yl)sulfonyl)benzamide]
6.30 to 7.00	CC[C@@H](Oc1ccc(C(=O)NS(=O)(=O)N2CC3(CN(C)C3)C2)c(F)c1F)c1ccc(OCC2CC2)cn1 [(R)-4-(1-(5-(cyclopropylmethoxy)pyridin-2-yl)propoxy)-2,3-difluoro-N-((6-methyl-2,6-diazaspiro[3.3]heptan-2-yl)sulfonyl)benzamide]
< 6.30	CC[C@@H](Oc1ccc(C(=O)NS(=O)(=O)N2CCC(OCCN(C)C)CC2)c(F)c1F)c1ccc(OCCOC)cn1 [(R)-N-((4-(2-(dimethylamino)ethoxy)piperidin-1-yl)sulfonyl)-2,3-difluoro-4-(1-(5-(2-methoxyethoxy)pyridin-2-yl)propoxy)benzamide]
6.30 to 7.00	CC(Oc1ccc(C(=O)NS(=O)(=O)CCN)c(Cl)c1Cl)c1cccc(Oc2ccccc2)c1 (stereo not shown) [N-((2-aminoethyl)sulfonyl)-2,3-dichloro-4-(1-(3-phenoxyphenyl)ethoxy)benzamide]
6.30 to 7.00	CC(Oc1ccc(C(=O)NS(=O)(=O)CCCN2CCOCC2)cc1C(F)(F)F)c1ccc(Oc2cccnn2)cn1 (stereo not shown) [N-((3-morpholinopropyl)sulfonyl)-4-(1-(5-(pyridazin-3-yloxy)pyridin-2-yl)ethoxy)-3-(trifluoromethyl)benzamide]
6.30 to 7.00	NCCc1ccc(S(=O)(=O)NC(=O)c2ccc(OCc3cccc(Oc4ccccc4)c3)c(F)c2F)cc1 [N-((4-(2-aminoethyl)phenyl)sulfonyl)-2,3-difluoro-4-((3-phenoxybenzyl)oxy)benzamide]
6.30 to 7.00	CN(C)Cc1ccc(S(=O)(=O)NC(=O)c2ccc(OCc3cccc(Oc4ccccc4)c3)c(F)c2F)cc1 [N-((4-((dimethylamino)methyl)phenyl)sulfonyl)-2,3-difluoro-4-((3-phenoxybenzyl)oxy)benzamide]
6.30 to 7.00	CC(COc1ccc(C(=O)NS(=O)(=O)c2ccc(CN)cc2)c(Cl)c1Cl)c1cccc(Oc2ccccc2)c1 (stereo not shown) [N-((4-(aminomethyl)phenyl)sulfonyl)-2,3-dichloro-4-(2-(3-phenoxyphenyl)propoxy)benzamide]
> 7.00	NCc1ccc(S(=O)(=O)NC(=O)c2ccc(OCc3cccc(Oc4ccccc4)c3)c(Cl)c2Cl)cc1 [N-((4-(aminomethyl)phenyl)sulfonyl)-2,3-dichloro-4-((3-phenoxybenzyl)oxy)benzamide]
> 7.00	CC(Oc1ccc(C(=O)NS(=O)(=O)c2ccc(CN)cc2)c(F)c1F)c1cccc(Oc2cccnc2)c1 (stereo not shown) [N-((4-(aminomethyl)phenyl)sulfonyl)-2,3-difluoro-4-(1-(3-(pyridin-3-yloxy)phenyl)ethoxy)benzamide]
> 7.00	CC(Oc1ccc(C(=O)NS(=O)(=O)c2ccc(CN)cc2)c(F)c1F)c1cccc(Oc2ccccc2)c1 (stereo not shown) [N-((4-(aminomethyl)phenyl)sulfonyl)-2,3-difluoro-4-(1-(3-phenoxyphenyl)ethoxy)benzamide]
< 6.30	NCc1ccc(S(=O)(=O)NC(=O)c2ccc(OCc3ccc(Oc4ccccc4)cc3)c(F)c2F)cc1 [N-((4-(aminomethyl)phenyl)sulfonyl)-2,3-difluoro-4-((4-phenoxybenzyl)oxy)benzamide]
< 6.30	CC(Oc1ccc(C(=O)NS(=O)(=O)c2ccc(CN)cc2)cc1C(F)(F)F)c1cccc(Oc2cnn(C)c2)c1 (stereo not shown) [N-((4-(aminomethyl)phenyl)sulfonyl)-4-(1-(3-((1-methyl-1H-pyrazol-4-yl)oxy)phenyl)ethoxy)-3-(trifluoromethyl)benzamide]
< 6.30	CCCC(C)COc1cccc(C(C)Oc2ccc(C(=O)NS(=O)(=O)c3ccc(CN)cc3)cc2C(F)(F)F)c1 (stereo not shown) [N-((4-(aminomethyl)phenyl)sulfonyl)-4-(1-(3-((2-methylpentyl)oxy)phenyl)ethoxy)-3-(trifluoromethyl)benzamide]
< 6.30	CC(Oc1ccc(C(=O)NS(=O)(=O)c2ccc(CN)cc2)cc1C(F)(F)F)c1cccc(OCC2CCCC2)c1 (stereo not shown) [N-((4-(aminomethyl)phenyl)sulfonyl)-4-(1-(3-(cyclopentylmethoxy)phenyl)ethoxy)-3-(trifluoromethyl)benzamide]
6.30 to 7.00	CC(Oc1ccc(C(=O)NS(=O)(=O)c2ccc(CN)cc2)c(F)c1F)c1cccc(OC2CCCC2)c1 (stereo not shown) [N-((4-(aminomethyl)phenyl)sulfonyl)-4-(1-(3-(cyclopentyloxy)phenyl)ethoxy)-2,3-difluorobenzamide]
< 6.30	CC(Oc1ccc(C(=O)NS(=O)(=O)c2ccc(CN)cc2)cc1C(F)(F)F)c1cccc(OC2CCCC2)c1 (stereo not shown) [N-((4-(aminomethyl)phenyl)sulfonyl)-4-(1-(3-(cyclopentyloxy)phenyl)ethoxy)-3-(trifluoromethyl)benzamide]
6.30 to 7.00	CCCCCOc1cccc(C(C)Oc2ccc(C(=O)NS(=O)(=O)c3ccc(CN)cc3)cc2C(F)(F)F)c1 (stereo not shown) [N-((4-(aminomethyl)phenyl)sulfonyl)-4-(1-(3-(pentyloxy)phenyl)ethoxy)-3-(trifluoromethyl)benzamide]
> 7.00	CC(Oc1ccc(C(=O)NS(=O)(=O)c2ccc(CN)cc2)cc1C(F)(F)F)c1cccc(Oc2cnccn2)c1 (stereo not shown) [N-((4-(aminomethyl)phenyl)sulfonyl)-4-(1-(3-(pyrazin-2-yloxy)phenyl)ethoxy)-3-(trifluoromethyl)benzamide]
> 7.00	CC(Oc1ccc(C(=O)NS(=O)(=O)c2ccc(CN)cc2)cc1C(F)(F)F)c1cccc(Oc2ccccn2)c1 (stereo not shown) [N-((4-(aminomethyl)phenyl)sulfonyl)-4-(1-(3-(pyridin-2-yloxy)phenyl)ethoxy)-3-(trifluoromethyl)benzamide]
> 7.00	CC(Oc1ccc(C(=O)NS(=O)(=O)c2ccc(CN)cc2)cc1C(F)(F)F)c1cccc(Oc2cccnc2)c1 (stereo not shown) [N-((4-(aminomethyl)phenyl)sulfonyl)-4-(1-(3-(pyridin-3-yloxy)phenyl)ethoxy)-3-(trifluoromethyl)benzamide]
6.30 to 7.00	CC(Oc1ccc(C(=O)NS(=O)(=O)c2ccc(CN)cc2)cc1C(F)(F)F)c1cccc(Oc2cncnc2)c1 (stereo not shown) [N-((4-(aminomethyl)phenyl)sulfonyl)-4-(1-(3-(pyrimidin-5-yloxy)phenyl)ethoxy)-3-(trifluoromethyl)benzamide]
> 7.00	CC(Oc1ccc(C(=O)NS(=O)(=O)c2ccc(CN)cc2)cc1C(F)(F)F)c1cccc(Oc2ccsc2)c1 (stereo not shown) [N-((4-(aminomethyl)phenyl)sulfonyl)-4-(1-(3-(thiophen-3-yloxy)phenyl)ethoxy)-3-(trifluoromethyl)benzamide]
6.30 to 7.00	CC(COc1ccc(C(=O)NS(=O)(=O)c2ccc(CN)cc2)cc1C(F)(F)F)c1cccc(Oc2ccccc2)c1 (stereo not shown) [N-((4-(aminomethyl)phenyl)sulfonyl)-4-(2-(3-phenoxyphenyl)propoxy)-3-(trifluoromethyl)benzamide]
< 6.30	NCc1ccc(S(=O)(=O)NC(=O)c2ccc(OCC3CCCC3)c(C(F)(F)F)c2)cc1 [N-((4-(aminomethyl)phenyl)sulfonyl)-4-(cyclopentylmethoxy)-3-(trifluoromethyl)benzamide]

SMILES	pIC50
CC[C@@H](Oc1ccc(C(=O)NS(=O)(=O)N2CCN(CC)CC2)c(F)c1F)c1ccc(OC2CC(OC)C2)cn1 (stereo partly drawn) [N-((4-ethylpiperazin-1-yl)sulfonyl)-2,3-difluoro-4-((R)-1-(5-((1R,3R)-3-methoxycyclobutoxy)pyridin-2-yl)propoxy)benzamide]	6.30 to 7.00
CC[C@@H](Oc1ccc(C(=O)NS(=O)(=O)N2CCN(CC)CC2)cc1C(F)(F)F)c1ccc(OC2CC(OC)C2)cn1 (stereo partly drawn) [N-((4-ethylpiperazin-1-yl)sulfonyl)-4-((R)-1-(5-((1R,3R)-3-methoxycyclobutoxy)pyridin-2-yl)propoxy)-3-(trifluoromethyl)benzamide]	6.30 to 7.00
